From patent publication US20160264593A1 (priority 2013, published 2016)

Test: in vivo
Conditions: rat, in vivo; for Tmax: Tmax of 100; for MRT: MRT of 100
Method: 100 was administrated via iv route at 0.5, 1.0 and 1.5 mg/kg into SD rats. The blood, liver and brain tissue samples were collected at predetermined times from rats.
Twelve (12) female SD rats per group were dosed by iv with 100. The rats were fasted overnight prior to dosing, with free access to water. Foods were withheld for 2 hours post-dose. Blood, liver and brain tissue samples in two animals each group were collected at each time point, within 10% of the scheduled time for each time point. Two extra animals were used for analytic method development. Blood (>0.3 mL) were collected via aorta abdominalis in anaesthetic animalsinto tubes containing heparin at 15 min, 1, 2, 6, 10 and 24 hours after iv administration. Liver and brain tissues were collected immediately after animal death. The liver and brain tissues were excised and rinsed with cold saline to avoid blood residual. Upon collection, each sample was placed on ice and the blood samples were subsequently centrifuged (4° C., 11000 rpm, 5 min) to separate plasma. The obtained plasma, liver and brain tissue samples were stored at −70° C. until LC-MS/MS analysis.
AUC0-∞ (AUC/NF) is the area under the plasma concentration-time curve with last concentration extrapolated based on the elimination rate constant.

[1] = female, Sprague-Dawley (SD), iv, 0.5 mg/kg, 100 brain concentration
[2] = female, Sprague-Dawley (SD), iv, 0.5 mg/kg, 100 liver concentration
[3] = female, Sprague-Dawley (SD), iv, 1 mg/kg, 100 liver concentration
[4] = female, Sprague-Dawley (SD), iv, 1.5 mg/kg, 100 brain concentration
[5] = female, Sprague-Dawley (SD), iv, 1.5 mg/kg, 100 liver concentration
[6] = female, Sprague-Dawley, iv, 0.5 mg/kg, 100 plasma concentration
[7] = female, Sprague-Dawley, iv, 1 mg/kg, 100 plasma concentration
[8] = female, Sprague-Dawley, iv, 1.5 mg/kg, 100 plasma concentration

Question: What does the source list for `CN1CCN(C(=O)C2C3CCC(O3)C2C(=O)O)CC1` (stereo not drawn) [Compound 100, 3-(4-methylpiperazine-1-carbonyl)-7-oxa-bicyclo[2,2,1]-heptane-2-carboxylic acid]?
Answer: AUC(0-inf) (female, SD, iv, 0.5 mg/kg): 0.706 µg·h/mL; AUC(0-t) (female, SD, iv, 0.5 mg/kg): 0.696 µg·h/mL; Tmax of 100 (female, SD, iv, 0.5 mg/kg): 0.25 h; Cmax (female, SD, iv, 0.5 mg/kg, Cmax of 100): 1.11 µg/mL; Tmax (female, SD, iv, 0.5 mg/kg): 0.25 h; AUC(0-inf) (female, SD, iv, 1 mg/kg): 2.83 µg·h/mL; AUC(0-t) (female, SD, iv, 1 mg/kg): 1.92 µg·h/mL; Tmax of 100 (female, SD, iv, 1 mg/kg): 0.25 h; Cmax (female, SD, iv, 1 mg/kg, Cmax of 100): 2.38 µg/mL; MRT (female, SD, iv, 1 mg/kg): 2.68 h; Tmax (female, SD, iv, 1 mg/kg): 0.25 h; AUC(0-inf) (female, SD, iv, 1.5 mg/kg): 8.64 µg·h/mL; AUC(0-t) (female, SD, iv, 1.5 mg/kg): 7.4 µg·h/mL; Cmax (female, SD, iv, 1.5 mg/kg, Cmax of 100): 3.66 µg/mL; MRT (female, SD, iv, 1.5 mg/kg): 2.57 h; half-life (female, SD, iv, 1.5 mg/kg, T½ of 100): 1.93 h; concentration at 0.25 h [1]: 15.3 ng/g; concentration at 0.25 hr [1]: 17.4 ng/g; concentration at 1 hr [1]: 6.31 ng/g; concentration at 0.25 h [2]: 520 ng/g; concentration at 2 h [2]: 109 ng/g; concentration at 6 h [2]: 4.8 ng/g; concentration at 2 h (female, Sprague-Dawley (SD), iv, 0.5 mg/kg, 100 plasma concentration): 0.0226 µg/mL; concentration at 0.25 h [3]: 1300 ng/g; concentration at 1 h [3]: 865 ng/g; concentration at 0.25 h [4]: 46.9 ng/g; concentration at 1 h [4]: 28.2 ng/g; concentration at 2 h [4]: 27.2 ng/g; concentration at 6 h [4]: 4.23 ng/g; concentration at 0.25 h [5]: 1980 ng/g; concentration at 1 h [5]: 2140 ng/g; concentration at 2 h [5]: 2400 ng/g; concentration at 6 h [5]: 407 ng/g; concentration at 10 h [5]: 5.25 ng/g; 100 liver concentration (female, Sprague-Dawley (SD), iv, 1.5 mg/kg, 6 h): 536 ng/g; concentration at 0.25 h [6]: 1 µg/mL; concentration at 1 h [6]: 0.192 µg/mL; concentration at 2 h [6]: 0.0258 µg/mL; 100 plasma concentration (female, Sprague-Dawley, iv, 0.5 mg/kg, 2 h): 19.4 ng/mL; concentration at 0.25 h [7]: 2.12 µg/mL; concentration at 1 h [7]: 0.354 µg/mL; concentration at 6 h [7]: 0.00327 µg/mL; AUC(0-t) (female, Sprague-Dawley, iv, 1.5 mg/kg): 0.696 to 7.4 µg·h/mL; concentration at 0.25 h [8]: 3.78 µg/mL; concentration at 1 h [8]: 1.76 µg/mL; concentration at 2 h [8]: 1.31 µg/mL; concentration at 6 h [8]: 0.263 µg/mL; half-life (female, Sprague-Dawley, iv, 1.5 mg/kg, T1/2 of 100 in brain): 1.67 to 1.93 h; half-life (female, Sprague-Dawley, iv, 1.5 mg/kg, T1/2 of 100 in liver): 0.78 to 2.01 h; half-life (female, Sprague-Dawley, iv, 1.5 mg/kg, T1/2 of 100 in plasma): 0.31 to 2.2 h; Cmax (female, Sprague-Dawley, iv, 1.5 mg/kg, mean Cmax of 100 in brain): 17.4 to 43.5 ng/g; Cmax (female, Sprague-Dawley, iv, 1.5 mg/kg, mean Cmax of 100 in liver): 586 to 2550 ng/g; AUC of 100 versus dose level (statement): increased proportionally; 100 detectable in brain tissue samples (iv): detectable; 100 detectable in liver tissue samples (iv): detectable; 100 in brain tissue (iv): below limit of quantification; 100 in liver tissue (iv): below limit of quantification; AUCINF of 100 (iv, 0.5 mg/kg): 902.2 ng·h/g; AUClast of 100 in brain (iv, 1.5 mg/kg): 10.8˜125.5 ng·h/g; AUClast of 100 in liver (iv, 1.5 mg/kg): 758.6˜9081.0 ng·h/g
